# Tested on: Phosphorylation of ERK1/2 in AsPC-1 cells
# Assay: Phospho-ERK1/2 MSD assay
# Assay type: cell-based
# Details: Homo sapiens, ASPC1, read-out: 2 h p-ERK (AsPC-1 cells), IC50 (μM), 2 hours compound treatment
# Procedure: Sixteen hours prior to compound treatment, AsPC-1 cells were seeded in 96-well cell culture plates at a density of 25,000 cells/well and incubated at 37° C., 5% CO2. A compound dose-response titration was diluted in growth media, added to appropriate wells of a cell culture plate, and then incubated at 37° C., 5% CO2 for 2 hours.
row,Compound,IC50
1,"CCc1c(F)ccc2cc(O)cc(-c3ncc4c(N5C[C@H]6C[C@@H](C5)O6)nc(OC[C@@]56CCCN5C[C@H](F)C6)nc4c3F)c12 [Example 27, 4-(4-((1R,5S)-6-Oxa-3-azabicyclo[3.1.1]heptan-3-yl)-8-fluoro-2-(((2R,7aS)-2-fluorotetrahydro-1H-pyrrolizin-7a(5H)-yl)methoxy)pyrido [4,3-d]pyrimidin-7-yl)-5-ethyl-6-fluoronaphthalen-2-ol]",2.28 µM
2,"Oc1cc(-c2ncc3c(N4CCCOCC4)nc(OC[C@@]45CCCN4C[C@H](F)C5)nc3c2F)c2ccccc2c1 [Example 14, 4-(8-Fluoro-2-(((2R,7aS)-2-fluorotetrahydro-1H-pyrrolizin-7a(5H)-yl)methoxy)-4-(1,4-oxazepan-4-yl)pyrido[4,3-d]pyrimidin-7-yl)naphthalen-2-ol]",0.794 µM

# The remaining lines, values ahead:
row,IC50,Compound
1,0.07 µM,"CCc1c(F)ccc2cc(O)cc(-c3ncc4c(N5CCOC[C@@H](CO)C5)nc(OC[C@@]56CCCN5C[C@H](F)C6)nc4c3F)c12 [Example 50, 5-Ethyl-6-fluoro-4-(8-fluoro-2-(((2R, 7aS)-2-fluorotetra-hydro-1H-pyrrol-izin-7a(5H)-yl)-methoxy)-4-((R)-6-(hydroxymeth-yl)-1,4-oxazepan-4-yl)pyrido[4,3-d]pyrimidin-7-yl)-naphthalen-2-ol]"
2,0.427 µM,"CCc1c(F)ccc2cc(O)cc(-c3ncc4c(N5CCOCC(C(=O)NC)C5)nc(OC[C@@]56CCCN5C[C@H](F)C6)nc4c3F)c12 (single isomer, unassigned) [Example 45]"
3,0.035 µM,"CCc1c(F)ccc2cc(O)cc(-c3ncc4c(N5CCCOCC5)nc(OC[C@]56CCCN5C[C@H](F)C6)nc4c3F)c12 [Example 41, 5-ethyl-6-fluoro-4-(8-fluoro-2-(((2R, 7aR)-2-fluorotetra-hydro-1H-pyrrol-izin-7a(5H)-yl)-methoxy)-4-(1,4-oxazepan-4-yl)pyr-ido[4,3-d]pyrimi-din-7-yl)naphtha-len-2-ol]"
4,2.27 µM,"CCc1c(F)ccc2cc(O)cc(-c3ncc4c(N5CCOC[C@H](O)C5)nc(OC[C@@]56CCCN5C[C@H](F)C6)nc4c3F)c12 [Example 26, (R)-4-(7-(8-Ethyl-7-fluoro-3-hydroxynaphthalen-1-yl)-8-fluoro-2-(((2R,7aS)-2-fluorotetrahydro-1H-pyrrolizin-7a(5H)-yl)methoxy)pyrido [4,3-d]pyrimidin-4-yl)-1,4-oxazepan-6-ol]"
5,0.004 µM,"CCc1c(F)ccc2cc(O)cc(-c3ncc4c(N5CCOCC(C)(O)C5)nc(OC[C@@]56CCCN5C[C@H](F)C6)nc4c3F)c12 (single isomer, unassigned) [Example 69]"
6,0.292 µM,"CCc1c(F)ccc2cc(O)cc(-c3ncc4c(N5CCOC[C@@H](O)C5)nc(OC[C@@]56CCCN5C[C@H](F)C6)nc4c3F)c12 [Example 25, (S)-4-(7-(8-Ethyl-7-fluoro-3-hydroxynaphthalen-1-yl)-8-fluoro-2-(((2R,7aS)-2-fluorotetrahydro-1H-pyrrolizin-7a(5H)-yl)methoxy)pyrido [4,3-d]pyrimidin-4-yl)-1,4-oxazepan-6-ol]"

# Same assay, conditions: read-out: 2 h p-ERK (AsPC-1 cells), IC50, 2 hours compound treatment
row,Compound,IC50
1,"CCc1c(F)ccc2cc(O)cc(-c3ncc4c(N5CCOC[C@H](CO)C5)nc(OC[C@@]56CCCN5C[C@H](F)C6)nc4c3F)c12 [Example 49, 5-Ethyl-6-fluoro-4-(8-fluoro-2-(((2R, 7aS)-2-fluorotetra-hydro-1H-pyrrol-izin-7a(5H)-yl)-methoxy)-4-((S)-6-(hydroxymethyl)-1,4-oxazepan-4-yl)-pyrido[4,3-d]pyr-imidin-7-yl)naph-thalen-2-ol]",0.889 µM

# Biological target: His-tagged KRAS G12D protein (Homo sapiens, UniProt P01116, G12D)
# Sequence (P01116 1-188 isoform P01116-2 G12D): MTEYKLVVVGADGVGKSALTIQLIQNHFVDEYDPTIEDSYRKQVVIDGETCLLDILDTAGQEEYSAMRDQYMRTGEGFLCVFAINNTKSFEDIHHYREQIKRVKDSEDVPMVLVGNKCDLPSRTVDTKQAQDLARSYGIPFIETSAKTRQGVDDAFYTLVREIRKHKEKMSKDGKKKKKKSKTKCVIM
# Assay: KRAS G12D TR-FRET assay (binding)
# Details: biotinylated KRPep-2d substrate, GDP in assay buffer
row,Compound,IC50
1,"CCc1c(F)ccc2cc(O)cc(-c3ncc4c(N5CCOC[C@H](CO)C5)nc(OC[C@@]56CCCN5C[C@H](F)C6)nc4c3F)c12 [Example 49, 5-Ethyl-6-fluoro-4-(8-fluoro-2-(((2R, 7aS)-2-fluorotetra-hydro-1H-pyrrol-izin-7a(5H)-yl)-methoxy)-4-((S)-6-(hydroxymethyl)-1,4-oxazepan-4-yl)-pyrido[4,3-d]pyr-imidin-7-yl)naph-thalen-2-ol]",13 nM
2,"CCc1c(F)ccc2cc(O)cc(-c3ncc4c(N5C[C@H]6C[C@@H](C5)O6)nc(OC[C@@]56CCCN5C[C@H](F)C6)nc4c3F)c12 [Example 27, 4-(4-((1R,5S)-6-Oxa-3-azabicyclo[3.1.1]heptan-3-yl)-8-fluoro-2-(((2R,7aS)-2-fluorotetrahydro-1H-pyrrolizin-7a(5H)-yl)methoxy)pyrido [4,3-d]pyrimidin-7-yl)-5-ethyl-6-fluoronaphthalen-2-ol]",62 nM
3,"CCc1c(F)ccc2cc(O)cc(-c3ncc4c(N5CCSC(CO)C5)nc(OC[C@@]56CCCN5C[C@H](F)C6)nc4c3F)c12 (stereo partly drawn) [Example 40, 5-Ethyl-6-fluoro-4-(8-fluoro-2-(((2R,7aS)-2-fluorotetrahydro-1H-pyrrolizin-7a(5H)-yl)methoxy)-4-(2-(hydroxymethyl)thiomorpholino)pyrido[4,3-d]pyrimidin-7-yl)naphthalen-2-ol]",6 nM
4,"CCc1c(F)ccc2cc(O)cc(-c3ncc4c(N5CCCOC(C(=O)NC)C5)nc(OC[C@@]56CCCN5C[C@H](F)C6)nc4c3F)c12 (single isomer, unassigned) [Example 42]",2 nM
5,"CCc1c(F)ccc2cc(O)cc(-c3ncc4c(N5CCCOCC5)nc(OCC5(CO)CC5)nc4c3F)c12 [Example 77, 5-Ethyl-6-fluoro-4-(8-fluoro-2-((1-(hydroxymethyl)cyclopropyl)methoxy)-4-(1,4-oxazepan-4-yl)pyrido[4,3-d]pyrimidin-7-yl)naphthalen-2-ol]",41 nM
6,"CCc1c(F)ccc2cc(O)cc(-c3ncc4c(N5CCCOCC5)nc(OCC5(C)CCC(=O)N5)nc4c3F)c12 (stereo not shown) [Example 30, 5-(((7-(8-ethyl-7-fluoro-3-hydroxynaphthalen-1-yl)-8-fluoro-4-(1,4-oxazepan-4-yl)pyrido[4,3-d]pyrimidin-2-yl)oxy)methyl)-5-methylpyrrolidin-2-one]",37 nM
7,"CCc1c(F)ccc2cc(O)cc(-c3ncc4c(N5CCCOCC5)nc(OCC5(C#N)CCNC5)nc4c3F)c12 (stereo not shown) [Example 31, 3-(((7-(8-ethyl-7-fluoro-3-hydroxynaphthalen-1-yl)-8-fluoro-4-(1,4-oxazepan-4-yl)pyrido[4,3-d]pyrimidin-2-yl)oxy)methyl) pyrrolidine-3-carbonitrile]",11 nM
8,"CCc1c(F)ccc2cc(O)cc(-c3ncc4c(N5CCCOC(C(=O)NC)C5)nc(OC[C@@]56CCCN5C[C@H](F)C6)nc4c3F)c12 (single isomer, unassigned) [Example 43]",249 nM
9,"CCc1c(F)ccc2cc(O)cc(-c3ncc4c(N5CCCOCC5)nc(OCC5(C#N)CCN(C)C5)nc4c3F)c12 (stereo not shown) [Example 33, 3-(((7-(8-ethyl-7-fluoro-3-hydroxynaphthalen-1-yl)-8-fluoro-4-(1,4-oxazepan-4-yl)pyrido[4,3-d]pyrimidin-2-yl)oxy)methyl)-1-methylpyrrolidine-3-carbonitrile]",27 nM
10,"CCc1c(F)ccc2cc(O)cc(-c3ncc4c(N5C[C@H]6CCC[C@@H](C5)O6)nc(OC[C@@]56CCCN5C[C@H](F)C6)nc4c3F)c12 [Example 64, 4-(4-((1R,5S)-9-oxa-3-azabicyclo [3.3.1]nonan-3-yl)-8-fluoro-2-(((2R, 7aS)-2-fluorotetra-hydro-1H-pyrrolizin-7a(5H)-yl)methoxy)-pyrido[4,3-d]pyrim-idin-7-yl)-5-ethyl-6-fluoronaphthalen-2-ol]",44 nM

# Other lines, results leading:
row,IC50,Compound
1,26 nM,"CCc1c(F)ccc2cc(O)cc(-c3ncc4c(N5CCOCC(C(=O)NC)C5)nc(OC[C@@]56CCCN5C[C@H](F)C6)nc4c3F)c12 (single isomer, unassigned) [Example 44]"
2,14 nM,"CCc1c(F)ccc2cc(O)cc(-c3ncc4c(N5CC6COCC(C5)C6O)nc(OC[C@@]56CCCN5C[C@H](F)C6)nc4c3F)c12 (stereo partly drawn) [Example 58, 7-(7-(8-Ethyl-7-fluoro-3-hydroxy-naphthalen-1-yl)-8-fluoro-2-(((2R,7aS)-2-fluorotetrahydro-1H-pyrrolizin-7a(5H)-yl)meth-oxy)pyrido[4,3-d]pyrimidin-4-yl)-3-oxa-7-azabicyclo [3.3.1]nonan-9-ol]"
3,2 nM,"CCc1c(F)ccc2cc(O)cc(-c3ncc4c(N5CCOCC(C(=O)NC)C5)nc(OC[C@@]56CCCN5C[C@H](F)C6)nc4c3F)c12 (single isomer, unassigned) [Example 45]"
4,15 nM,"CCc1c(F)ccc2cc(O)cc(-c3ncc4c(N5CCOC(CO)C5)nc(OC[C@@]56CCCN5C[C@H](F)C6)nc4c3F)c12 (stereo partly drawn) [Example 60, 5-Ethyl-6-fluoro-4-(8-fluoro-2-(((2R, 7aS)-2-fluorotetra-hydro-1H-pyrrol-izin-7a(5H)-yl)-methoxy)-4-(2-(hydroxymethyl)-morpholino)pyrido [4,3-d]pyrimidin-7-yl)naphthalen-2-ol]"
5,43 nM,"CCc1c(F)ccc2cc(O)cc(-c3ncc4c(N5CCOC(CC#N)C5)nc(OC[C@@]56CCCN5C[C@H](F)C6)nc4c3F)c12 (stereo partly drawn) [Example 65, 2-(4-(7-(8-Ethyl-7-fluoro-3-hydroxy-naphthalen-1-yl)-8-fluoro-2-(((2R,7aS)-2-fluorotetrahydro-1H-pyrrolizin-7a(5H)-yl)methoxy)-pyrido[4,3-d]pyrim-idin-4-yl)morpholin-2-yl)acetonitrile]"
6,52 nM,"CCc1c(F)ccc2cc(O)cc(-c3ncc4c(N5CCOC(C(F)F)C5)nc(OC[C@@]56CCCN5C[C@H](F)C6)nc4c3F)c12 (stereo partly drawn) [Example 75, 4-(4-(2-(Difluoromethyl)morpholino)-8-fluoro-2-(((2R,7aS)-2-fluorotetrahydro-1H-pyrrolizin-7a(5H)-yl)methoxy)pyrido[4,3-d]pyrimidin-7-yl)-5-ethyl-6-fluoronaphthalen-2-ol]"
7,7 nM,"CCc1c(F)ccc2cc(O)cc(-c3ncc4c(N5CCOCC[C@@H]5C)nc(OC[C@@]56CCCN5C[C@H](F)C6)nc4c3F)c12 [Example 55, 5-Ethyl-6-fluoro-4-(8-fluoro-2-(((2R, 7aS)-2-fluorotetra-hydro-1H-pyrrol-izin-7a(5H)-yl)-methoxy)-4-((S)-5-methyl-1,4-oxazepan-4-yl)-pyrido[4,3-d]pyrimidin-7-yl)-naphthalen-2-ol]"
8,17 nM,"CCc1c(F)ccc2cc(O)cc(-c3ncc4c(N5CCOCC(C(N)=O)C5)nc(OC[C@@]56CCCN5C[C@H](F)C6)nc4c3F)c12 (single isomer, unassigned) [Example 46]"
9,7 nM,"CCc1c(F)ccc2cc(O)cc(-c3ncc4c(N5CCOCC[C@H]5C)nc(OC[C@@]56CCCN5C[C@H](F)C6)nc4c3F)c12 [Example 54, 5-Ethyl-6-fluoro-4-(8-fluoro-2-(((2R,7aS)-2-fluorotetrahydro-1H-pyrrolizin-7a(5H)-yl)methoxy)-4-((R)-5-methyl-1,4-oxazepan-4-yl)pyrido[4,3-d]pyrimidin-7-yl)naphthalen-2-ol]"
